Experimental data as given in patent US20070004660A1, “Synergistic Modulation of Flt3 Kinase Using Alkylquinolines and Alkylquinazolines” (priority 2005, published 2007).

Columns and labels:
[1] = test system: patients with relapsed and refractory AML; settings: cited from earlier work
[2] = target: T1, isolated kinase domain of the human FLT3 receptor (a.a. 571-993) (Homo sapiens, UniProt P36888); assay: FLT3 fluorescence polarization kinase assay; assay type: biochemical; settings: 150 uM ATP; uncertainty ±10%
T1 construct: human FLT3 receptor (a.a. 571-993)
T1 sequence (P36888 571-993): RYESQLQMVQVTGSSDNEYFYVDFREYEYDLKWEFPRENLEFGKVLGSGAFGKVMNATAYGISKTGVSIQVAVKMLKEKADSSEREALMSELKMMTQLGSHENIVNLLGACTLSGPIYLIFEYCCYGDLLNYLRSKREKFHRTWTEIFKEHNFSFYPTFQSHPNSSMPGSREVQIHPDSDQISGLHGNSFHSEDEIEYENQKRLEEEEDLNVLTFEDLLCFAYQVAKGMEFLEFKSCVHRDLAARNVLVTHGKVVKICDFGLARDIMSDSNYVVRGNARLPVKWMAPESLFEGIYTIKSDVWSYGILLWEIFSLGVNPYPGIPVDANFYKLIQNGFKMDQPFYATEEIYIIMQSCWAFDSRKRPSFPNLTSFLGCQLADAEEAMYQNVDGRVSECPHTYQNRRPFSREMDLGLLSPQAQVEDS

MV4-11 cells = assay: Inhibition of MV4-11 cell proliferation (CellTiterGlo, 72 h); assay type: cell-based; settings: Homo sapiens; 72 h growth inhibition; uncertainty ±20%
[3] = multicenter Phase II trial, relapsed AML

IC50 [2] | IC50 (MV4-11 cells) | SMILES | >50% reduction in bone marrow blasts [1, 3] | complete responses (bone marrow blasts <5%) [1, 3] | response rate ([1]; patients with relapsed and refractory AML)
 |  | Cn1cncc1C(N)(c1ccc(Cl)cc1)c1ccc2c(c1)c(-c1cccc(Cl)c1)cc(=O)n2C (single isomer, unassigned; (+)) [Tipifarnib, (+)-6-[amino(4-chlorophenyl)(1-methyl-1H-imidazol-5-yl)methyl]-4-(3-chlorophenyl)-1-methyl-2(1H)-quinolinone] | 31 of 50 | 17 of 50 | ~30%
28 nM | 61 nM | O=C1CCCN1CCOc1cc2ncnc(C3CCN(C(=O)Nc4ccc(N5CCCC5)cc4)CC3)c2cc1F [Compound 206, 4-{6-Fluoro-7-[2-(2-oxo-pyrrolidin-1-yl)-ethoxy]-quinazolin-4-yl}-piperidine-1-carboxylic acid (4-pyrrolidin-1-yl-phenyl)-amide] |  |  | 
29 nM | 48 nM | COc1cc2c(C3CCN(C(=O)Nc4ccc(N5CCOCC5)cc4)CC3)ncnc2cc1OCCCN1CCN(C)CC1 [Compound 207, 4-{6-Methoxy-7-[3-(4-methyl-piperazin-1-yl)-propoxy]-quinazolin-4-yl}-piperidine-1-carboxylic acid (4-morpholin-4-yl-phenyl)-amide] |  |  | 
17 nM | 26 nM | COc1cc2c(C3CCN(C(=O)Nc4ccc(N5CCCC5)cc4)CC3)ncnc2cc1OCCN1CCCC1=O [Compound 209, 4-{6-Methoxy-7-[2-(2-oxo-pyrrolidin-1-yl)-ethoxy]-quinazolin-4-yl}-piperidine-1-carboxylic acid (4-pyrrolidin-1-yl-phenyl)-amide] |  |  | 
21 nM | 102 nM | O=C(Nc1ccc(N2CCCC2)cc1)N1CCC(c2ncnc3cc(N4CCOCC4)c(F)cc23)CC1 [Compound 210, 4-(6-Fluoro-7-morpholin-4-yl-quinazolin-4-yl)-piperidine-1-carboxylic acid (4-pyrrolidin-1-yl-phenyl)-amide] |  |  | 
8 nM | 20 nM | COc1cc2c(C3CCN(C(=O)Nc4ccc(N5CCCC5)cc4)CC3)ncnc2cc1N1CCOCC1 [Compound 211, 4-(6-Methoxy-7-morpholin-4-yl-quinazolin-4-yl)-piperidine-1-carboxylic acid (4-pyrrolidin-1-yl-phenyl)-amide] |  |  | 
239 nM | 367 nM | COc1cc2c(C3CCN(C(=O)Nc4ccc(N5CCOCC5)cc4)CC3)ncnc2cc1N1CCOCC1 [Compound 212, 4-(6-Methoxy-7-morpholin-4-yl-quinazolin-4-yl)-piperidine-1-carboxylic acid (4-morpholin-4-yl-phenyl)-amide] |  |  | 
210 nM | 752 nM | COc1cc2ncnc(C3CCN(C(=O)Nc4ccc(I)cc4)CC3)c2cc1OC [Example 2, 4-(6,7-Dimethoxy-quinazolin-4-yl)-piperidine-1-carboxylic acid (4-iodo-phenyl)-amide] |  |  | 
3900 nM | 636 nM | COc1cc2ncnc(C3CCN(C(=O)Nc4ccc(-n5ccnc5)cc4)CC3)c2cc1OC [Example 3, 4-(6,7-Dimethoxy-quinazolin-4-yl)-piperidine-1-carboxylic acid (4-imidazol-1-yl-phenyl)-amide] |  |  | 
6100 nM | > 10000 nM | COc1cc2ncnc(C3CCN(C(=O)Nc4ccc(NC(C)=O)cc4)CC3)c2cc1OC [Example 25, 4-(6,7-Dimethoxy-quinazolin-4-yl)-piperidine-1-carboxylic acid (4-acetylamino-phenyl)-amide] |  |  | 
200 nM | 204 nM | COc1cc2ncnc(C3CCN(C(=O)Nc4ccc(N(C)C)cc4)CC3)c2cc1OC [Example 26, 4-(6,7-Dimethoxy-quinazolin-4-yl)-piperidine-1-carboxylic acid (4-dimethylamino-phenyl)-amide] |  |  | 
8 nM | 15 nM | COc1cc2ncnc(C3CCN(C(=O)Cc4ccc(C(C)C)cc4)CC3)c2cc1OC [Example 28, 1-[4-(6,7-Dimethoxy-quinazolin-4-yl)-piperidin-1-yl]-2-(4-isopropyl-phenyl)-ethanone] |  |  | 
150 nM | 315 nM | CC(C)Oc1ccc(NC(=O)N2CCC(c3ncnc4cc(Cl)ccc34)CC2)cc1 [Example 29, 4-(7-Chloro-quinazolin-4-yl)-piperidine-1-carboxylic acid (4-isopropoxy-phenyl)-amide] |  |  | 
35 nM | 380 nM | CC(C)c1ccc(NC(=O)N2CCC(c3ncnc4cc(Cl)ccc34)CC2)cc1 [Example 30, 4-(7-Chloro-quinazolin-4-yl)-piperidine-1-carboxylic acid (4-isopropyl-phenyl)-amide] |  |  | 
21 nM | 85 nM | COc1ccc2c(C3CCN(C(=O)Nc4ccc(OC(C)C)cc4)CC3)ncnc2c1 [Example 31, 4-(7-Methoxy-quinazolin-4-yl)-piperidine-1-carboxylic acid (4-isopropoxy-phenyl)-amide] |  |  | 
11 nM | 235 nM | COc1ccc2c(C3CCN(C(=O)Nc4ccc(C(C)C)cc4)CC3)ncnc2c1 [Example 32, 4-(7-Methoxy-quinazolin-4-yl)-piperidine-1-carboxylic acid (4-isopropyl-phenyl)-amide] |  |  | 
11 nM | 50 nM | CC(C)Oc1ccc(NC(=O)N2CCC(c3ncnc4cc(OCCCN5CCCCC5)ccc34)CC2)cc1 [Example 33, 4-(7-(3-Piperidin-1-yl-propoxy)-quinazolin-4-yl)-piperidine-1-carboxylic acid (4-isopropoxy-phenyl)-amide] |  |  | 
49 nM | 95 nM | CC(C)Oc1ccc(NC(=O)N2CCC(c3ncnc4cc(OCCN5CCCCC5)ccc34)CC2)cc1 [Example 34, 4-(7-(2-Piperindin-1-yl-ethoxy)-quinazolin-4-yl)-piperidine-1-carboxylic acid (4-isopropoxy-phenyl)-amide] |  |  | 
47 nM | 95 nM | CCN(CC)CCOc1ccc2c(C3CCN(C(=O)Nc4ccc(OC(C)C)cc4)CC3)ncnc2c1 [Example 35, 4-[7-(2-Diethylamino-ethoxy)-quinazolin-4-yl)-piperidine-1-carboxylic acid (4-isopropoxy-phenyl)-amide] |  |  | 
18 nM | 42 nM | CCN(CC)CCCOc1ccc2c(C3CCN(C(=O)Nc4ccc(OC(C)C)cc4)CC3)ncnc2c1 [Example 36, 4-[7-(3-Diethylamino-propoxy)-quinazolin-4-yl)-piperidine-1-carboxylic acid (4-isopropoxy-phenyl)-amide] |  |  | 
7 nM | 165 nM | CC(C)Oc1ccc(NC(=O)N2CCC(c3ncnc4cc(OCCN5CCOCC5)ccc34)CC2)cc1 [Example 37] |  |  | 
6 nM | 16 nM | CC(C)Oc1ccc(NC(=O)N2CCC(c3ncnc4cc(OCCCN5CCOCC5)ccc34)CC2)cc1 [Example 38] |  |  | 
15 nM | 14 nM | CC(C)Oc1ccc(NC(=O)N2CCC(c3ncnc4cc(OCCCN5CCN(C)CC5)ccc34)CC2)cc1 [Example 39] |  |  | 
910 nM | 2200 nM | COCCOc1ccc(NC(=O)N2CCC(c3ncnc4cc(OC)c(OC)cc34)CC2)cc1 [Example 40, 4-(6,7-Dimethoxy-quinazolin-4-yl)-piperidine-1-carboxylic acid [4-(2-methoxy-ethoxy)-phenyl]-amide] |  |  | 
